In US11192891B2, “Diazaspiro ROCK inhibitors” (BRISTOL-MYERS SQUIBB COMPANY, priority 2017, dated 2021):

target: ROCK2 (Homo sapiens, UniProt O75116); experiment: ROCK kinase inhibition assay, FITC peptide substrate, LABCHIP 3000 readout; assay type: biochemical; details: 5 μM ATP, 1.5 μM peptide substrate
How it was run: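 Tested across a concentration range, with percent inhibition of kinase activity derived per concentration. Peptide phosphorylation, initiated by adding the Rho kinase variant (final DMSO <2%), was quenched with EDTA and substrate/product resolved by mobility shift.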

Sequence of ROCK2 (O75116 whole entry, species assumed): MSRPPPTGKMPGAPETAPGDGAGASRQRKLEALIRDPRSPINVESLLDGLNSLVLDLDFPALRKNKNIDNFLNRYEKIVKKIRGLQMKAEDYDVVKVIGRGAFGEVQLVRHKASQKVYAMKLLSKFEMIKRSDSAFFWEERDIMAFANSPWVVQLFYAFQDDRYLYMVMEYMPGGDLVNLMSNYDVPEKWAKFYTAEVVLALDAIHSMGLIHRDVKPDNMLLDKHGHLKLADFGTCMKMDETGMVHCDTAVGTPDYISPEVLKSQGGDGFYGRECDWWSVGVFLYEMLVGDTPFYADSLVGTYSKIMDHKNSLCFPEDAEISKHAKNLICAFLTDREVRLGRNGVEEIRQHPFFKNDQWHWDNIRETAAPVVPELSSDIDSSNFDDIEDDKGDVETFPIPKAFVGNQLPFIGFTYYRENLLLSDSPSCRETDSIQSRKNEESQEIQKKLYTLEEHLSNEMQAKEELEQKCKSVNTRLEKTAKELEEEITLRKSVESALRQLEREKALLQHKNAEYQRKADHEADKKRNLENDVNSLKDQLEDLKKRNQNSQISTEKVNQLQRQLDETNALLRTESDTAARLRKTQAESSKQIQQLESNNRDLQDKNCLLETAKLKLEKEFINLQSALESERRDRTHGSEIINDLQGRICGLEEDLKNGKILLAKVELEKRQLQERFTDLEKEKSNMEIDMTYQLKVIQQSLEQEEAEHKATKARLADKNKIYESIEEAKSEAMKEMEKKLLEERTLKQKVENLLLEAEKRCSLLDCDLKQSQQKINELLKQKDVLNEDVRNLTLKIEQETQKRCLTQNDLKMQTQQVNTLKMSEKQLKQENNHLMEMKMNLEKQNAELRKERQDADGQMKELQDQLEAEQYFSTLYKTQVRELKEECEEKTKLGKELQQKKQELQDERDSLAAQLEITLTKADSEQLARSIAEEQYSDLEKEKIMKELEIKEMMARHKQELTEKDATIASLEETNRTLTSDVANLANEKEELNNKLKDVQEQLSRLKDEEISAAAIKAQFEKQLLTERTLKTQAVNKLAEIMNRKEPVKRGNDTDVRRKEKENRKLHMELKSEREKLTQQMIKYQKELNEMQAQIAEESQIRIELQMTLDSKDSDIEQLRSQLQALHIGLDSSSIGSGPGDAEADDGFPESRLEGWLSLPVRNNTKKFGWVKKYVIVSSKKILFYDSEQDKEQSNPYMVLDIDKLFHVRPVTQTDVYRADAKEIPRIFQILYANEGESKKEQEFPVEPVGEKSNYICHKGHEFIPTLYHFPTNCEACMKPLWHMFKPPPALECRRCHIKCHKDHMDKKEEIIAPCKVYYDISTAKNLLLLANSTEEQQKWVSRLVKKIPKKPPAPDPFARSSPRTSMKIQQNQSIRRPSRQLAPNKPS

Q: With `COc1cc(N2CCC3(CCN(C(=O)c4ccc(N5CCNC5=O)cc4)CC3)C2=O)ccc1-c1cn[nH]c1` [Example 139, 2-[3-methoxy-4-(1H-pyrazol-4-yl)phenyl]-8-[4-(2-oxoimidazolidin-1-yl)benzoyl]-2,8-diazaspiro[4.5]decan-1-one] as the compound, how does the IC50 read?
A: 3.7 nM

Q: How did the IC50 turn out when `COc1cc(N2CCC3(CCN(C(=O)c4cc5cnccc5nc4C)CC3)C2=O)ccc1-c1cn[nH]c1` [Example 165, 2-[3-methoxy-4-(1H-pyrazol-4-yl)phenyl]-8-(2-methyl-1,6-naphthyridine-3-carbonyl)-2,8-diazaspiro[4.5]decan-1-one] was run?
A: 896 nM

Q: With `COc1cc(N2CCC3(CCN(C(=O)c4ccc(N(C)C)cc4)CC3)C2=O)ccc1-c1cn[nH]c1` [Example 21, 8-[4-(dimethylamino)benzoyl]-2-[3-methoxy-4-(1H-pyrazol-4-yl)phenyl]-2,8-diazaspiro[4.5]decan-1-one] as the compound, how does the IC50 read?
A: 16 nM

Q: For `COc1cc(N2CCC3(CCN(C(=O)c4cccs4)CC3)C2=O)ccc1-c1cn[nH]c1` [Example 89, 2-[3-methoxy-4-(1H-pyrazol-4-yl)phenyl]-8-(thiophene-2-carbonyl)-2,8-diazaspiro[4.5]decan-1-one], which IC50 is on record?
A: 117 nM

Q: `CN1CCN(c2ccc(C(=O)N3CCC4(CC3)CCN(c3cccc(-c5ccc6cn[nH]c6c5)c3)C4=O)cc2)CC1` [Example 49, 2-[3-(1H-indazol-6-yl)phenyl]-8-[4-(4-methylpiperazin-1-yl)benzoyl]-2,8-diazaspiro[4.5]decan-1-one] was tested. Which IC50 did it give?
A: 6.8 nM

Q: `COc1cc(N2CCC3(CCN(C(=O)c4csc(-c5cccnc5)n4)CC3)C2=O)ccc1-c1cn[nH]c1` [Example 78, 2-[3-methoxy-4-(1H-pyrazol-4-yl)phenyl]-8-[2-(pyridin-3-yl)-1,3-thiazole-4-carbonyl]-2,8-diazaspiro[4.5]decan-1-one] was tested. Which IC50 did it give?
A: 76 nM

Q: For `COc1cc(N2CCC3(CCN(C(=O)c4ccc(N5CCN(CC(C)(C)C)CC5)cc4)CC3)C2=O)ccc1-c1cn[nH]c1` [Example 241, 8-{4-[4-(2,2-dimethylpropyl)piperazin-1-yl]benzoyl}-2-[3-methoxy-4-(1H-pyrazol-4-yl)phenyl]-2,8-diazaspiro[4.5]decan-1-one], which IC50 is on record?
A: 0.4 nM

Q: Which IC50 does the source give for `COc1cc(N2CCC3(CCN(C(=O)c4cc[n+]([O-])cc4)CC3)C2=O)ccc1-c1cn[nH]c1` [Example 96, 4-{2-[3-methoxy-4-(1H-pyrazol-4-yl)phenyl]-1-oxo-2,8-diazaspiro[4.5]decane-8-carbonyl}pyridin-1-ium-1-olate] here?
A: 1100 nM

Q: How did the IC50 turn out when `COc1cc(N2CCC3(CCN(C(=O)c4ccc(N5CCN(Cc6cccc(Cl)c6)CC5)cc4)CC3)C2=O)ccc1-c1cn[nH]c1` [Example 186, 8-(4-{4-[(3-chlorophenyl)methyl]piperazin-1-yl}benzoyl)-2-[3-methoxy-4-(1H-pyrazol-4-yl)phenyl]-2,8-diazaspiro[4.5]decan-1-one] was run?
A: 1.2 nM

Q: How did the IC50 turn out when `CCN(CC)c1ccc(C(=O)N2CCC3(CC2)CCN(c2ccc(-c4cn[nH]c4)c(OC)c2)C3=O)cc1` [Example 194, 8-[4-(diethylamino)benzoyl]-2-[3-methoxy-4-(1H-pyrazol-4-yl)phenyl]-2,8-diazaspiro[4.5]decan-1-one] was run?
A: 5.2 nM

Q: With `COc1cc(N2CCC3(CCN(C(=O)c4ccc(-n5cccn5)cc4)CC3)C2=O)ccc1-c1cn[nH]c1` [Example 124, 2-[3-methoxy-4-(1H-pyrazol-4-yl)phenyl]-8-[4-(1H-pyrazol-1-yl)benzoyl]-2,8-diazaspiro[4.5]decan-1-one] as the compound, how does the IC50 read?
A: 62 nM

Q: With `COc1ccc(C(=O)N2CCC3(CC2)CCN(c2ccc(-c4cn[nH]c4)c(OC)c2)C3=O)c(F)c1` [Example 17, 8-(2-Fluoro-4-methoxybenzoyl)-2-[3-methoxy-4-(1H-pyrazol-4-yl)phenyl]-2,8-diazaspiro[4.5]decan-1-one] as the compound, how does the IC50 read?
A: 8 nM

Q: `COc1cc(N2CCC3(CCN(C(=O)c4ccc(N5CCN(CCOCc6ccccc6)CC5)cc4)CC3)C2=O)ccc1-c1cn[nH]c1` [Example 221, 8-(4-{4-[2-(benzyloxy)ethyl]piperazin-1-yl}benzoyl)-2-[3-methoxy-4-(1H-pyrazol-4-yl)phenyl]-2,8-diazaspiro[4.5]decan-1-one] was tested. Which IC50 did it give?
A: 0.4 nM
